The values below come from patent US20240400555A1 (Initial Therapeutics, Inc., priority 2023, published 2024).

The assay relates to HCT-116 Firefly-luciferase reporter cells. Nature of the assay: Cellular c-MYC Reporter Assay. The settings on record: Homo sapiens; untitled table following Table 8a; HCT-116 Firefly-luciferase reporter cells, 24 h; read-out: pIC50 (converted). Type of assay: cell-based. Summed up:
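Compound exposure lasted 24 h at 37 °C, 5% CO2, in complete McCoy's 5A medium containing 0.2% DMSO, beginning 4–6 h post-seeding (5e4 cells/mL). Firefly luciferase signal measured by luminescence after 10 min ONE-Glo development at room temperature.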
Background: A reporter such as luciferase makes a cellular process visible.
With `Cc1cccc2ccnc(N(C(=O)c3ccc(-n4nnc5cccnc54)cc3)[C@H]3CNC[C@@H](C)C3)c12` [Example 225, 4-(3H-[1,2,3]triazolo[4,5-b]pyridin-3-yl)-N-(8-methylisoquinolin-1-yl)-N-((3R,5S)-5-methylpiperidin-3-yl)benzamide], the IC50 is 4790 nM.
Then `Cc1cccc2ccnc(N(C(=O)c3ccc(Nc4ncns4)cc3F)[C@@H]3CCCNC3)c12` [Example 280, 2-fluoro-N-(8-methyl-1-isoquinolyl)-N-[(3R)-3-piperidyl]-4-(1,2,4-thiadiazol-5-ylamino)benzamide], with 891 nM.
Regarding `Cc1ccnc(N(C(=O)c2ccc(-n3nnc4cccnc43)cc2F)[C@@H]2CCCNC2)c1/C=C/CCO` [Example 137, (R,E)-4-(3H-[1,2,3]triazolo[4,5-b]pyridin-3-yl)-2-fluoro-N-(3-(4-hydroxybut-1-en-1-yl)-4-methylpyridin-2-yl)-N-(piperidin-3-yl)benzamide], the IC50 was 2950 nM.
Then `Cc1nccnc1-c1ccc(C(=O)N(c2nccc3cccc(C)c23)[C@@H]2CCCNC2)c(F)c1` [Example 203, (R)-2-fluoro-N-(8-methylisoquinolin-1-yl)-4-(3-methylpyrazin-2-yl)-N-(piperidin-3-yl)benzamide], with 129 nM; and `Cc1nnn(-c2ccc(C(=O)N(c3nccc4cccc(C)c34)[C@@H]3CCCNC3)c(F)c2)n1` [Example 195, (R)-2-fluoro-4-(5-methyl-2H-tetrazol-2-yl)-N-(8-methylisoquinolin-1-yl)-N-(piperidin-3-yl) benzamide], with 87.1 nM.
Then `Cc1cccc2ccnc(N(C(=O)c3ccc(-c4cnn5cccnc45)cc3F)[C@@H]3CCCNC3)c12` [Example 215, (R)-2-fluoro-N-(8-methylisoquinolin-1-yl)-N-(piperidin-3-yl)-4-(pyrazolo[1,5-a]pyrimidin-3-yl)benzamide], with 269 nM; and `O=C(c1ccc(-n2nnc3cccnc32)cc1F)N(c1ncccc1/C=C/CCO)[C@@H]1CCCNC1` [Example 104, 2-fluoro-N-[3-[(E)-4-hydroxybut-1-enyl]-2-pyridyl]-N-[(3R)-3-piperidyl]-4-(triazolo[4,5-b]pyridin-3-yl)benzamide], with 8910 nM; and `O=C(c1ccc(-n2nnc3cccnc32)cc1F)N(c1nccc2cccc(/C=C/c3cccnc3)c12)[C@@H]1CCCNC1` [Example 163, (R,E)-4-(3H-[1,2,3]triazolo[4,5-b]pyridin-3-yl)-2-fluoro-N-(piperidin-3-yl)-N-(8-(2-(pyridin-3-yl)vinyl)isoquinolin-1-yl)benzamide], with 537 nM.
Take `Cc1cc(C2CCN(C(=O)N(c3nccc4cccc(C)c34)[C@@H]3CCCCNC3)CC2)on1` [Example 181, (R)—N-(azepan-3-yl)-N-(8-methylisoquinolin-1-yl)-4-(3-methylisoxazol-5-yl)piperidine-1-carboxamide]: the IC50 was 11000 nM.
